Source: ChEMBL document CHEMBL1151672, “Amarogentin, a naturally occurring secoiridoid glycoside and a newly recognized inhibitor of topoisomerase I from Leishmania donovani” (J Nat Prod, 1996)
Calls of active or inactive are those of the source. The calls are words filed in the database; no cut-off is given here.

Tested on: Leishmania donovani
Assay: Inhibition of 2 units of Leishmania donovani MHOM/IN/1978/UR6 DNA topoisomerase 1-mediated supercoiled pGEM4Z DNA relaxation at 5 to 10 uM preincubated for 10 mins prior to DNA addition by agarose gel electrophoresis

CC[C@@]1(O)C(=O)OCc2c1cc1n(c2=O)Cc2cc3ccccc3nc2-1
Activity: Active
